According to patent EP0618905B1, “IMIDAZOLYL-ALKYL-PIPERAZINE AND -DIAZEPINE DERIVATIVES AS HISTAMINE H3 AGONISTS/ANTAGONISTS” (SCHERING CORPORATION, priority 1991, dated 1993):

Experiments:
H₃ receptors = target: T1, H₃ receptors (Cavia porcellus, UniProt Q9JI35); assay: H3 Receptor Binding Assay; settings: guinea pig brain membranes; for Ki: 3 nM [³H]R-α-methylhistamine or [³H]-N-methylhistamine, 30° for 30 min; for H3 Binding (inhibition of the specific binding of radioactive ligand): final concentration 2 µg/mL with 0.1% DMSO, not serially diluted (70% or less inhibition)
T1 construct: The source of the H₃ receptors in this experiment was guinea pig brain; from tissue; host or cells: guinea pig brain membranes
Method: H₃ Receptor Binding Assay
The source of the H₃ receptors in this experiment was guinea pig brain. The animals used weighed 400-600 g. The tissue was homogenized using a Polytron in a solution of 50 mM Tris, pH 7.5. The final concentration of tissue in the homogenization buffer was 10% w/v. The homogenates were centrifuged at 1000 x g for 10 min. in order to remove clumps of tissue and debris. The resulting supernatants were then centrifuged at 50,000 x g for 20 min. in order to sediment the membranes, which were nest washed 3 times in homogenization buffer (50,000 x g for 20 min. each). The membranes were frozen and stored at -70°C until needed.
All compounds to be tested were dissolved in DMSO and then diluted into the binding buffer (50 mM Tris, pH 7.5) such that the final concentration was 2 µg/mL with 0.1% DMSO. Membranes were then added (400 µg of protein) to the reaction tubes. The reaction was started by the addition of 3 nM [³H]R-α-methylhistamine (8.8 Ci/mmol) or [³H]-N-methylhistamine (80 Ci/mmol) and incubated at 30° for 30 min. Bound ligand was separated from unbound ligand by filtration, and the amount of radioactive ligand bound to the membranes was quantitiated by liquid scintillation spectrometry.

[1] = target: H₃ receptors in rat brain (Rattus norvegicus, UniProt Q9QYN8); settings: complete agonists of the H₃ receptors; cited from earlier work
Chain of H₃ receptors in rat brain (Q9QYN8 whole entry): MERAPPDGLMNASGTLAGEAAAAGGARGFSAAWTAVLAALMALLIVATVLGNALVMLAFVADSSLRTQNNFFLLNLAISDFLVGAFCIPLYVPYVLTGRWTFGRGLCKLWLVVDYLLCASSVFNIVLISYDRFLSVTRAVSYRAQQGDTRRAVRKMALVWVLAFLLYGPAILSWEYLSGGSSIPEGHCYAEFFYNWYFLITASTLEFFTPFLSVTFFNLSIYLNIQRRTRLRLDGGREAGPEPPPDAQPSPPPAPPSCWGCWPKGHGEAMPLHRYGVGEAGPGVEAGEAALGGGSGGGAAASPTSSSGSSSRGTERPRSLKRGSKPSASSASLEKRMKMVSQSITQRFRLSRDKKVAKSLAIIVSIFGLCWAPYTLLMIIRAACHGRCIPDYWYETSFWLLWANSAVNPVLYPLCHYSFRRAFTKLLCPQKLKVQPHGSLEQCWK

T1 sequence (Q9JI35 whole entry): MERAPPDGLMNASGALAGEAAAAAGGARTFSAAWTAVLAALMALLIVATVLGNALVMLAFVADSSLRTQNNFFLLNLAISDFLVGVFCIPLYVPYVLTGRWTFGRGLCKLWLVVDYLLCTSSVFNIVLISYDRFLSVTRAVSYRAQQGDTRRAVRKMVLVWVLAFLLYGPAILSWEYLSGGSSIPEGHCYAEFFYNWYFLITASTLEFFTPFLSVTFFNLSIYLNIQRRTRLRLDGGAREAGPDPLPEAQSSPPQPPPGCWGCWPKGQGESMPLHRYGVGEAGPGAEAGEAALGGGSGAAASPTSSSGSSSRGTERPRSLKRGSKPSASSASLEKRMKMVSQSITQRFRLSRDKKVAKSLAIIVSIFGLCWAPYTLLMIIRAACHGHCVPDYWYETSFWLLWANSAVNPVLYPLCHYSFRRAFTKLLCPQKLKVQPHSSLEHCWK

Row | SMILES | Ki (H₃ receptors) | H3 Binding (inhibition of the specific binding of radioactive ligand) (H₃ receptors) | also measured
1 | c1nc(CN2CCNCC2)c[nH]1 | 4.7 nM |  | 
2 | CC1CN(Cc2c[nH]cn2)C(C)CN1 (stereo not drawn) |  | 6% | 
3 | C[C@@H]1CN(Cc2c[nH]cn2)C[C@H](C)N1 |  | 24% | 
4 | c1nc(CN2CCCNCC2)c[nH]1 | 87 nM |  | 
5 | NCCc1c[nH]cn1 [(a*), reference compound] | 14 nM |  | 
6 | NCCc1c[nH]cn1 [histamine] |  |  | maximal inhibition of release [1]: approximately 60%
